Biological target: T1, human kinase Mps-1 (Homo sapiens, UniProt P33981)
T1 construct: N-terminally GST-tagged human full length recombinant Mps-1 kinase; GST (N); purchased Invitrogen, Karslruhe, Germany PV4071
T1 sequence (P33981 1-857): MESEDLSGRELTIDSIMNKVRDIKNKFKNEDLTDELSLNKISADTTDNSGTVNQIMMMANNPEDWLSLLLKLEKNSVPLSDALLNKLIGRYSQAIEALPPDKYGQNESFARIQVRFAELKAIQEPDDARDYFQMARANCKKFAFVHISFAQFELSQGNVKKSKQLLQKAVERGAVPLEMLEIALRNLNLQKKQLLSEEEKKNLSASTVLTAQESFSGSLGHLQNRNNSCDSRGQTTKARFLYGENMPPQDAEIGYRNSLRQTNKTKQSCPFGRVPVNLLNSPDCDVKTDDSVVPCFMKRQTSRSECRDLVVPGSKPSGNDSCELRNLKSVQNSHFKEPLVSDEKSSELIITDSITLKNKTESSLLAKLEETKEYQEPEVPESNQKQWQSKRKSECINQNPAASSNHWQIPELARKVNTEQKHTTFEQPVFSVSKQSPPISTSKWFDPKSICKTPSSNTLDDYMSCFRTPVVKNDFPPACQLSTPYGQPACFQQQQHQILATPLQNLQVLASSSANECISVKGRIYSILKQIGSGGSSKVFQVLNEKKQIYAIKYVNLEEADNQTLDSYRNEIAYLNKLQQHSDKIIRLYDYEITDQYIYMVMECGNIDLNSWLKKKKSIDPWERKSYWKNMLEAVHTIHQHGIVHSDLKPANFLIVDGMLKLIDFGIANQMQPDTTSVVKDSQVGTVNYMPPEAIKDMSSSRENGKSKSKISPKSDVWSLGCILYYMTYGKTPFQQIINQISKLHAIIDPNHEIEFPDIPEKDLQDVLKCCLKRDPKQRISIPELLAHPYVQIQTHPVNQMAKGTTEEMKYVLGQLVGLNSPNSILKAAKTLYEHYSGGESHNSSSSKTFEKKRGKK
Assay: Mps-1 kinase assay (TR-FRET)
Type: biochemical
Conditions: N-terminally GST-tagged human full length recombinant Mps-1; 10 μM ATP; 1 μM peptide substrate; 15 min pre-incubation; 60 min at 22° C.
Summary of the method: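 N-terminally GST-tagged full-length recombinant human Mps-1, about 1 nM final, phosphorylates a biotinylated peptide. Product detected by TR-FRET from Eu-anti-phospho-Ser/Thr antibody to streptavidin-XLent after 1 h at 22° C.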

| SMILES | IC50 [nM] |
| --- | --- |
| CCOc1cccc(-c2cn3c(-c4ccc(C(=O)NC5CC5)cc4)cnc3c(NCC(C)C)n2)c1 [Example 1-44, N-cyclopropyl-4-{6-(3-ethoxyphenyl)-8-[(2-methylpropyl)amino]imidazo[1,2-a]pyrazin-3-yl}benzamide] | 5.8 |
| CC(C)CNc1nc(-c2ccccc2F)cn2c(-c3ccc(C(=O)NC4CC4)cc3)cnc12 [Example 1-51, N-cyclopropyl-4-{6-(2-fluorophenyl)-8-[(2-methylpropyl)amino]imidazo[1,2-a]pyrazin-3-yl}benzamide] | 3.7 |
| CC(C)CNc1nc(-c2ccc(S(=O)(=O)NC3CC3)cc2)cn2c(-c3ccc(C(=O)NC4CC4)cc3)cnc12 [Example 1-126, N-cyclopropyl-4-{6-[4-(cyclopropylsulfamoyl)phenyl]-8-[(2-methylpropyl)amino]imidazo[1,2-a]pyrazin-3-yl}benzamide] | 4.4 |
| CC(C)CNc1nc(-c2ccc(C(=O)NC(C)C)cc2)cn2c(-c3ccc(C(=O)NC4CC4)cc3)cnc12 [Example 1-34, 4-{3-[4-(cyclopropyl-carbamoyl)phenyl]-8-[(2-methylpropyl)amino]imidazo[1,2-a]pyrazin-6-yl}-N-(propan-2-yl) benzamide] | 4.2 |
| CNC(=O)c1ccc(-c2cn3c(-c4ccc(C(=O)NC5CC5)cc4)cnc3c(NCC(C)C)n2)cc1 [Example 1-31, 4-{3-[4-(cyclopropyl-carbamoyl)phenyl]-8-[(2-methylpropyl)amino]imidazo[1,2-a]pyrazin-6-yl}-N-methylbenzamide] | 1.3 |
| Cc1cc(-c2cnc3c(NCCC(F)(F)F)nc(-c4cccc(CO)c4)cn23)ccc1C(=O)NC1CC1 [Example 1-122, N-cyclopropyl-4-{6-[3-(hydroxymethyl)phenyl]-8-[(3,3,3-trifluoropropyl)amino]imidazo[1,2-a]pyrazin-3-yl}-2-methyl-benzamide] | 11.9 |
| COc1ccc2cc(-c3cn4c(-c5ccc(C(=O)NC6CC6)cc5)cnc4c(NCC(C)C)n3)ccc2c1 [Example 1-79, N-cyclopropyl-4-{6-(6-methoxynaphthalen-2-yl)-8-[(2-methylpropyl)amino]imidazo[1,2-a]pyrazin-3-yl}benzamide] | 32.7 |
| Cc1cc(-c2cnc3c(NCCC(F)(F)F)nc(-c4ccccc4CO)cn23)ccc1C(=O)NC1CC1 [Example 1-138, N-cyclopropyl-4-{6-[2-(hydroxymethyl)phenyl]-8-[(3,3,3-trifluoro-propyl)amino]imidazo[1,2-a]pyrazin-3-yl}-2-methylbenzamide] | 1.9 |
| Cc1cc(C)cc(-c2cn3c(-c4ccc(C(=O)NC5CC5)cc4)cnc3c(NCC(C)C)n2)c1 [Example 1-39, N-cyclopropyl-4-{6-(3,5-dimethylphenyl)-8-[(2-methylpropyl)amino]imidazo[1,2-a]pyrazin-3-yl}benzamide] | 32.3 |
| CC(C)CNc1nc(-c2ccc3[nH]ccc3c2)cn2c(-c3ccc(C(=O)NC4CC4)cc3)cnc12 [Example 1-74, N-cyclopropyl-4-{6-(1H-indol-5-yl)-8-[(2-methyl-propyl)amino]imidazo [1,2-a]pyrazin-3-yl} benzamide] | 37.7 |
| COc1cccc(-c2cn3c(-c4ccc(C(=O)NC5CC5)cc4)cnc3c(NCC(C)C)n2)c1F [Example 1-13, N-cyclopropyl-4-{6-(2-fluoro-3-methoxyphenyl)-8-[(2-methylpropyl)amino]imidazo[1,2-a]pyrazin-3-yl}benzamide] | 7 |
| Cn1nccc1CNc1nc(-c2ccc(F)cc2)cn2c(-c3ccc(C(=O)NC4CC4)c(Cl)c3)cnc12 [Example 1-107, 2-chloro-N-cyclopropyl-4-[6-(4-fluorophenyl)-8-{[(1-methyl-1H-pyrazol-5-yl)methyl]amino}imidazo[1,2-a]pyrazin-3-yl]benzamide] | 13.2 |
| COc1ccccc1-c1cn2c(-c3ccc(C(=O)NC4CC4)cc3)cnc2c(NCC(C)C)n1 [Example 1-41, N-cyclopropyl-4-{6-(2-methoxyphenyl)-8-[(2-methylpropyl)amino]imidazo[1,2-a]pyrazin-3-yl}benzamide] | 7.4 |
| CC(C)CNc1nc(-c2ccc(Cl)cc2Cl)cn2c(-c3ccc(C(=O)NC4CC4)cc3)cnc12 [Example 1-87, N-cyclopropyl-4-{6-(2,4-dichlorophenyl)-8-[(2-methylpropyl)amino]imidazo[1,2-a]pyrazin-3-yl}benzamide] | 6.7 |
| CN(C)c1ccc(-c2cn3c(-c4ccc(C(=O)NC5CC5)c(Cl)c4)cnc3c(NCC(C)(C)O)n2)cc1 [Example 1-99, 2-chloro-N-cyclopropyl-4-{6-[4-(dimethylamino)phenyl]-8-[(2-hydroxy-2-methylpropyl)amino]imidazo[1,2-a]pyrazin-3-yl}benzamide] | 31.1 |
| CC(C)CNc1nc(-c2cccc(C(=O)NCc3ccccc3)c2)cn2c(-c3ccc(C(=O)NC4CC4)cc3)cnc12 [Example 1-55, N-benzyl-3-{3-[4-(cyclo-propylcarbamoyl)phenyl]-8-[(2-methylpropyl)amino]imidazo[1,2-a]pyrazin-6-yl}benzamide] | 4.6 |

Now from value to compound:

| IC50 [nM] | SMILES |
| --- | --- |
| 3.6 | O=C(NC1CC1)c1ccc(-c2cnc3c(NCCOCC(F)(F)F)nc(-c4ccccc4)cn23)cc1 [Example 2-88, N-cyclopropyl-4-(6-phenyl-8-{[2-(2,2,2-trifluoroethoxy)ethyl]amino}imidazo[1,2-a]pyrazin-3-yl)benzamide] |
| 2.5 | O=C(NC1CC1)c1ccc(-c2cnc3c(NCc4cccs4)nc(-c4ccccc4)cn23)cc1 [Example 2-77, N-cyclopropyl-4-{6-phenyl-8-[(2-thienylmethyl)amino]imidazo[1,2-a]pyrazin-3-yl}benzamide] |
| 32.2 | CNC(=O)CNc1nc(-c2ccccc2)cn2c(-c3ccc(C(=O)NC4CC4)cc3)cnc12 [Example 2-49, N-cyclopropyl-4-(8-{[2-(methylamino)-2-oxoethyl]amino}-6-phenylimidazo[1,2-a]pyrazin-3-yl)benzamide] |
| 6.4 | O=C(NC1CC1)c1ccc(-c2cnc3c(NCc4sccc4Cl)nc(-c4ccccc4)cn23)cc1 [Example 2-59, 4-(8-{[(3-chlorothiophen-2-yl)methyl]amino}-6-phenylimidazo [1,2-a]pyrazin-3-yl)-N-cyclopropylbenzamide] |
| 5.4 | CCC(C)c1cn2c(-c3ccc(C(=O)NC4CC4)cc3)cnc2c(NCC(C)C)n1 (centres unmarked) [Example 11-1, 4-{6-(butan-2-yl)-8-[(2-methylpropyl)amino]imidazo[1,2-a]pyrazin-3-yl}-N-cyclopropylbenzamide] |
| 6.2 | O=C(NC1CC1)c1ccc(-c2cnc3c(NCCOCCO)nc(-c4ccccc4)cn23)cc1 [Example 2-80, N-cyclopropyl-4-(8-{[2-(2-hydroxyethoxy)ethyl]amino}-6-phenylimidazo[1,2-a]pyrazin-3-yl)benzamide] |
| 7.1 | CC(C)CNc1nc(C(C)C)cn2c(-c3ccc(C(=O)NC4CC4)cc3)cnc12 [Example 11-2, N-cyclopropyl-4-{8-[(2-methylpropyl)amino]-6-(propan-2-yl)imidazo[1,2-a]pyrazin-3-yl} benzamide] |
| 2.3 | CCOC(C)CNc1nc(-c2ccccc2)cn2c(-c3ccc(C(=O)NC4CC4)cc3)cnc12 (centres unmarked) [Example 2-57, N-cyclopropyl-4-{8-[(2-ethoxypropyl)amino]-6-phenylimidazo[1,2-a]pyrazin-3-yl}benzamide] |
| 1.3 | O=C(NC1CC1)c1ccc(-c2cnc3c(NCC4CCCCO4)nc(-c4ccccc4)cn23)cc1 (centres unmarked) [Example 2-65, N-cyclopropyl-4-{6-phenyl-8-[(tetrahydro-2H-pyran-2-ylmethyl)amino]imidazo[1,2-a]pyrazin-3-yl}benzamide] |
| 3.2 | O=C(NC1CC1)c1ccc(-c2cnc3c(NCc4ccco4)nc(-c4ccccc4)cn23)cc1 [Example 2-75, N-cyclopropyl-4-{8-[(2-furylmethyl)amino]-6-phenylimidazo[1,2-a]pyrazin-3-yl}benzamide] |
| 4.1 | O=C(NC1CC1)c1ccc(-c2cnc3c(NCCCn4ccnc4)nc(-c4ccccc4)cn23)cc1 [Example 2-71, N-cyclopropyl-4-(8-{[3-(1H-imidazol-1-yl)propyl]amino}-6-phenylimidazo[1,2-a]pyrazin-3-yl)benzamide] |
| 2.8 | O=C(NC1CC1)c1ccc(-c2cnc3c(NCc4ccoc4)nc(-c4ccccc4)cn23)cc1 [Example 2-76, N-cyclopropyl-4-{8-[(3-furylmethyl)amino]-6-phenylimidazo[1,2-a]pyrazin-3-yl}benzamide] |
| 35.7 | CN(C)CCNc1nc(-c2ccccc2)cn2c(-c3ccc(C(=O)NC4CC4)cc3)cnc12 [Example 2-34, N-cyclopropyl-4-(8-{[2-(dimethylamino)ethyl]amino}-6-phenylimidazo[1,2-a]pyrazin-3-yl)benzamide] |

From patent US20140187548A1, “6 SUBSTITUTED IMIDAZOPYRAZINES FOR USE AS MPS-1 AND TKK INHIBITORS IN THE TREATMENT OF HYPERPROLIFERATIVE DISORDERS” (BAYER INTELLECTUAL PROPERTY GMBH, priority 2010, published 2014)
